Data published in patent US10239838B2, “Heteroaryl orexin receptor antagonists” (Merck Sharp & Dohme Corp., priority 2014, dated 2019).

What was measured:
hOX1R = hOX1R (Homo sapiens, UniProt O43613); assay: FLIPR Ca2+ Flux Assay, orexin-1 receptor; type: cell-based; conditions: CHO cells expressing orexin-1 receptor; agonist 70 pM Ala-6,12 orexin-A
human orexin-2 receptor = human orexin-2 receptor (Homo sapiens (Human), UniProt O43614); assay: FLIPR Ca2+ Flux Assay, orexin-2 receptor; type: cell-based; conditions: CHO cells expressing the human orexin-2 receptor; agonist 70 pM Ala-6,12 orexin-A; read-out: hOX2R FLIPR IC50
Chain of human orexin-2 receptor (O43614 whole entry): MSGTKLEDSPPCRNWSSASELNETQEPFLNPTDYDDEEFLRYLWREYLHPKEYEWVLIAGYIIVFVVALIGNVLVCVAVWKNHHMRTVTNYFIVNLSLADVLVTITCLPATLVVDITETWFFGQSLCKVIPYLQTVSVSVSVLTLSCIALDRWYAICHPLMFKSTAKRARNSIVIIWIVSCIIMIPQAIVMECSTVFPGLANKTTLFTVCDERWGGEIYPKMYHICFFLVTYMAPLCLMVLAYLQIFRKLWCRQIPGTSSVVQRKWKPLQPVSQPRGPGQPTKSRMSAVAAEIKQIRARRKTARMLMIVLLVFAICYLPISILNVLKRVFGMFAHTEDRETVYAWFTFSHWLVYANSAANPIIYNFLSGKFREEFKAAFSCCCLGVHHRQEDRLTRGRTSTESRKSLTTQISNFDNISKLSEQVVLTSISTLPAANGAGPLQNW
Protocol: In a typical experiment the OX1 and OX2 receptor antagonistic activity of the compounds of the present invention was determined in accordance with the following experimental method. For intracellular calcium measurements, Chinese hamster ovary (CHO) cells expressing the rat orexin-1 receptor or the human orexin-2 receptor, are grown in Iscove's modified DMEM containing 2 mM L-glutamine, […], 1% hypoxanthine-thymidine supplement, 100 U/ml penicillin, 100 μg/ml streptomycin and 10% heat-inactivated fetal calf serum (FCS). The cells are seeded at 20,000 cells/well into Becton-Dickinson black 384-well clear bottom sterile plates coated with poly-D-lysine. All reagents were from GIBCO-Invitrogen Corp. The seeded plates are incubated overnight at 37° C. and 5% CO2. Ala-6,12 human orexin-A as the agonist is prepared as a 1 mM stock solution in 1% bovine serum albumin (BSA) and diluted in assay buffer (HBSS containing 20 mM HEPES, 0.1% BSA and 2.5 mM probenecid, pH7.4) for use in the assay at a final concentration of 70 pM. Test compounds are prepared as 10 mM stock solution in DMSO, then diluted in 384-well plates, first in DMSO, then assay buffer. On the day of the assay, cells are washed 3 times with 100 μl assay buffer and then incubated for 60 min (37° C., 5% CO2) in 60 μl assay buffer containing 1 μM Fluo-4 AM ester, 0.02% pluronic acid, and 1% BSA. The dye loading solution is then aspirated and cells are washed 3 times with 100 μl assay buffer. 30 μl of that same buffer is left in each well. Within the Fluorescent Imaging Plate Reader (FLIPR, Molecular Devices), test compounds are added to the plate in a volume of 25 μl, incubated for 5 min and finally 25 μl of agonist is added. Fluorescence is measured for each well at 1 second intervals for 5 minutes and the height of each fluorescence peak is compared to the height of the fluorescence peak induced by 70 pM Ala-6,12 orexin-A with buffer in place of antagonist. […] Alternatively, compound potency can be assessed by a radioligand binding assay (described in Bergman et. al. Bioorg. Med. Chem. Lett. 2008, 18, 1425-1430) in which the inhibition constant (Ki) is determined in membranes prepared from CHO cells expressing either the OX1 or OX2 receptor. The intrinsic orexin receptor antagonist activity of a compound which may be used in the present invention may be determined by these assays.

Structure (SMILES)	IC50 (hOX1R)	IC50 (human orexin-2 receptor)
CCN(CCc1ccc(C(C)(C)O)cn1)C(=O)c1ccccc1N1CCCC1 [Example 51, N-ethyl-N-{2-[5-(1-hydroxy-1-methylethyl)pyridin-2-yl]ethyl}-2-pyrrolidin-1-ylbenzamide]	> 10000 nM	76 nM
CCN(CCc1cccc(C(C)(C)O)n1)C(=O)c1ccccc1OCC(F)(F)F [Example 17, N-ethyl-N-(2-(6-(2-hydroxypropan-2-yl)pyridin-2-yl)ethyl)-2-(2,2,2-trifluoroethoxy)benzamide]	> 10000 nM	261 nM
CCN(CCc1ccc(C(C)(C)O)cn1)C(=O)c1ccccc1C1CC1 [Example 60, 2-cyclopropyl-N-ethyl-N-{2-[5-(1-hydroxy-1-methylethyl)pyridin-2-yl]ethyl}benzamide]	> 10000 nM	244 nM
CCN(CCc1cnc(C(C)(C)O)cn1)C(=O)c1ccccc1-n1nccn1 [Example 46, N-Ethyl-N-(2-(5-(2-hydroxypropan-2-yl)pyrazin-2-yl)ethyl)-2-(2H-H-1,2,3-triazol-2-yl)benzamide]	> 10000 nM	170 nM
CCN(CCc1cccc(C(C)(C)O)n1)C(=O)c1ccc(F)cc1-n1nccn1 [Example 13, N-ethyl-4-fluoro-N-{2-[6-(1-hydroxy-1-methylethyl)pyridin-2-yl]ethyl}-2-(2H-1,2,3-triazol-2-yl)benzamide]	> 10000 nM	8 nM
CCOc1ccccc1C(=O)N(CC)CCc1ccc(C(C)(C)O)cn1 [Example 57, 2-ethoxy-N-ethyl-N-{2-[5-(1-hydroxy-1-methylethyl)pyridin-2-yl]ethyl}benzamide]	> 10000 nM	547 nM
CCN(CCc1ccc(C(C)(C)O)cn1)C(=O)c1ccccc1-n1ncnn1 [Example 55, N-ethyl-N-{2-[5-(1-hydroxy-1-methylethyl)pyridin-2-yl]ethyl}-2-(2H-tetrazol-2-yl)benzamide]	> 10000 nM	388 nM
CCN(CCc1ccc(C(C)(C)O)cn1)C(=O)c1ccc(OC)nc1C1CC1 [Example 59, 2-cyclopropyl-N-ethyl-N-{2-[5-(1-hydroxy-1-methylethyl)pyridin-2-yl]ethyl}-6-methoxypyridine-3-carboxamide]	> 10000 nM	55 nM
CCN(CCc1ccc(C(C)(C)O)cn1)C(=O)c1ccccc1-n1cccn1 [Example 53, N-ethyl-N-{2-[5-(1-hydroxy-1-methylethyl)pyridin-2-yl]ethyl}-2-(1H-pyrazol-1-yl)benzamide]	> 10000 nM	183 nM
CCN(CCc1ccc(C(C)(C)O)cn1)C(=O)c1cccnc1OCC(F)F [Example 64, 2-(2,2-difluoroethoxy)-N-ethyl-N-{2-[5-(1-hydroxy-1-methylethyl)pyridin-2-yl]ethyl}pyridine-3-carboxamide]	> 10000 nM	337 nM
CCN(CCc1ncc(C(C)(C)O)cn1)C(=O)c1ccccc1-n1nccn1 [Example 41, N-Ethyl-N-(2-(5-(2-hydroxypropan-2-yl)pyrimidin-2-yl)ethyl)-2-(2H-1,2,3-triazol-2-yl)benzamide]	3230 nM	86 nM
CCN(CCc1ccc(C)c(C(C)(C)O)n1)C(=O)c1ccccc1-n1nccn1 [Example 48, N-Ethyl-N-(2-(6-(2-hydroxypropan-2-yl)-5-methylpyridin-2-yl)ethyl)-2-(2H-1,2,3-triazol-2-yl)benzamide]	791 nM	6 nM
CCN(CCc1cccc(C(C)(C)O)n1)C(=O)c1ccccc1C1CC1(F)F (stereo not drawn) [Example 31, 2-(2,2-difluorocyclopropyl)-N-ethyl-N-(2-(6-(2-hydroxypropan-2-yl)pyridin-2-yl)ethyl)benzamide]	9040 nM	14 nM
CCN(CCc1cccc(C(C)(C)O)n1)C(=O)c1cccnc1OCC(F)(F)F [Example 10, N-ethyl-N-{2-[6-(1-hydroxy-1-methylethyl)pyridin-2-yl]ethyl}-2-(2,2,2-trifluoroethoxy)pyridine-3-carboxamide]	> 10000 nM	69 nM
CCCc1ccccc1C(=O)N(CC)CCc1cccc(C(C)(C)O)n1 [Example 16, N-ethyl-N-(2-(6-(2-hydroxypropan-2-yl)pyridin-2-yl)ethyl)-2-propylbenzamide]	> 10000 nM	104 nM
CCN(CCc1cncc(C(C)(C)O)n1)C(=O)c1ccccc1-n1nccn1 [Example 39, N-Ethyl-N-{2-[6-(1-hydroxy-1-methylethyl)pyrazin-2-yl]ethyl}-2-(2H-1,2,3-triazol-2-yl)benzamide]	> 10000 nM	68 nM
CCN(CCc1cccc(C(C)(C)O)n1)C(=O)c1ccccc1CC(F)F [Example 23, 2-(2,2-difluoroethyl)-N-ethyl-N-(2-(6-(2-hydroxypropan-2-yl)pyridin-2-yl)ethyl)benzamide]	> 10000 nM	142 nM
CCN(CCc1ccc(C(C)(C)O)cn1)C(=O)c1ccccc1-n1nccn1 [Example 35, N-Ethyl-N-{2-[5-(1-hydroxy-1-methylethyl)pyridin-2-yl]ethyl}-2-(2H-1,2,3-triazol-2-yl)benzamide]	> 10000 nM	50 nM
CCN(CCc1cncc(C(C)(C)O)c1)C(=O)c1ccccc1-n1nccn1 [Example 38, N-Ethyl-N-{2-[5-(1-hydroxy-1-methylethyl)pyridin-3-yl]ethyl}-2-(2H-1,2,3-triazol-2-yl)benzamide]	> 10000 nM	152 nM
CCN(CCc1ccc(C(C)(C)O)cn1)C(=O)c1ccccc1C1CCC1 [Example 62, 2-cyclobutyl-N-ethyl-N-{2-[5-(1-hydroxy-1-methylethyl)pyridin-2-yl]ethyl}benzamide]	> 10000 nM	62 nM
CCN(CCc1cc(C(C)(C)O)ccn1)C(=O)c1ccccc1-n1nccn1 [Example 1, N-Ethyl-N-{2-[4-(1-hydroxy-1-methylethyl)pyridin-2-yl]ethyl}-2-(2H-1,2,3-triazol-2-yl)benzamide]	> 10000 nM	69 nM
CCN(CCc1cccc(C(C)(C)O)n1)C(=O)c1ccccc1C1CC1 [Example 15, 2-cyclopropyl-N-ethyl-N-{2-[6-(1-hydroxy-1-methylethyl)pyridin-2-yl]ethyl}benzamide]	> 10000 nM	43 nM
CCN(CCc1cccc(C(C)(C)O)n1)C(=O)c1cccnc1OCC(F)F [Example 9, 2-(2,2-difluoroethoxy)-N-ethyl-N-{2-[6-(1-hydroxy-1-methylethyl)pyridin-2-yl]ethyl}pyridine-3-carboxamide]	> 10000 nM	95 nM
CCN(CCc1ccc(C(C)(C)O)cn1)C(=O)c1ccccc1C1CC1(F)F (stereo not drawn) [Example 63, 2-(2,2-difluorocyclopropyl)-N-ethyl-N-{2-[5-(1-hydroxy-1-methylethyl)pyridin-2-yl]ethyl}benzamide]	> 10000 nM	38 nM
CCN(CCc1cccc(C(C)(C)O)n1)C(=O)c1cccnc1-c1ccccc1 [Example 14, N-ethyl-N-{2-[6-(1-hydroxy-1-methylethyl)pyridin-2-yl]ethyl}-2-phenylpyridine-3-carboxamide]	> 10000 nM	103 nM
CCN(CCc1cccc(C(C)(C)O)n1)C(=O)c1ccccc1OC(F)(F)F [Example 8, N-ethyl-N-{2-[6-(1-hydroxy-1-methylethyl)pyridin-2-yl]ethyl}-2-(trifluoromethoxy)benzamide]	> 10000 nM	32 nM
CCN(CCc1cccc(C(C)(C)O)n1)C(=O)c1ccccc1OC(F)F [Example 7, 2-(difluoromethoxy)-N-ethyl-N-{2-[6-(1-hydroxy-1-methylethyl)pyridin-2-yl]ethyl}benzamide]	> 10000 nM	196 nM
CCN(CCc1nccc(C(C)(C)O)n1)C(=O)c1ccccc1-n1nccn1 [Example 44, N-Ethyl-N-(2-(4-(2-hydroxypropan-2-yl)pyrimidin-2-yl)ethyl)-2-(2H-1,2,3-triazol-2-yl)benzamide]	> 10000 nM	58 nM
CCN(CCc1ccc(C(C)(C)O)cn1)C(=O)c1cccnc1-c1ccccc1 [Example 58, N-ethyl-N-{2-[5-(1-hydroxy-1-methylethyl)pyridin-2-yl]ethyl}-2-phenylpyridine-3-carboxamide]	> 10000 nM	334 nM
CCN(CCc1cccc(C(C)(C)O)n1)C(=O)c1ccccc1-n1ncnn1 [Example 29, N-ethyl-N-(2-(6-(2-hydroxypropan-2-yl)pyridin-2-yl)ethyl)-2-(2H-tetrazol-2-yl)benzamide]	> 10000 nM	146 nM
